From patent US6063777A, “Iminochlorinaspartic acid derivatives” (Wyeth Lederle Japan, Ltd., priority 1996, dated 2000) come the findings set out here.

The nature of data set [1]: Laser irradiation to extirpated organ: distribution (cancer/organ ratio) by surface fluorescence, N2-pulsed laser, mice bearing Colon 26. The data set is classed as in vivo, CDF1 mice. To be noted: mouse, tumor/plasma, sodium salt, 10 mg/kg intravenous. The procedure: (§1) CDF1 mice (5 per group) were implanted with tumor tissues of colon cancer Colon 26. Two weeks after the implantation, the mice were given an intravenous injection of sodium salt of each of compounds (I) and (II) (10 mg/kg for each mouse) which had been diluted with a distilled water for injection. At 3 hrs, 6 hrs and 12 hrs after the injection, the blood samples were collected and the organs bearing the tumor tissue were extirpated, irradiated with N2 -pulsed laser (N2, wavelength: 337 nm, 2 ns), and the excited fluorescent spectrum was measured. The wavelengths in the range of 600 to 900 nm were examined based on the peak wavelength of NADH at 470 nm (determination of the distribution of the test compound in the organ by the surface fluorescence method using N2 -pulsed laser spectrophotometry). That is, cancer/organ (or plasma) ratio was determined by calculating the peak wavelength in the range of 600 to 900 nm when the peak wavelength at 470 nm was considered as the basic value, 1.

A further data set has as its system colon cancer Colon 26. Described as above. The data set is classed as in vivo, CDF1 mice. The settings on record: sodium salt, 10 mg/kg intravenous. The method, then: as §1
Another data set has as its system HeLa cells. The experiment in a line: HeLa cell survival after diode laser (670 nm) irradiation, MTS-PMS reagent. The data set is classed as cell-based. The settings on record: Homo sapiens, HeLa, light or radiation study, sodium salt, 6 hrs, 670 nm, 25 J/cm^2, read-out: Cell Survival Rate. The procedure:
HeLa cells were seeded in wells of a 96-well plate each containing 100 μl of a culture medium at 5×10^3 /well, and incubated at 37° C. overnight. In each well, the culture medium was removed, and 100 μl of a solution containing sodium salt of either of compound (I) or compound (II) in concentrations of 0, 6.25, 12.5, 25, 50 and 100 μM/ml was added (3 wells for each group of the concentrations) and incubated at 37° C. at for 6 hrs. Each well was washed with PBS(-) once, and then 100 μl of a fresh medium was added. The wells were irradiated using a diode laser (670 nm) under the conditions of 0.44W of laser intensity, 0.785 cm^2 of irradiation area (diameter: 1 cm) and 25 J/cm^2 of laser energy. After the irradiation, each well was incubated at 37° C. overnight and washed with PBS(-) once, then 100 μl of a fresh medium was added. To each well was added 20 μl of MTS-PMS reagent, and the well was further incubated at 37° C. for 2-4 hrs. The absorbance of each well at 492 nm was measured using a microplate reader. The cell survival rate at each of the above mentioned concentrations of the test compound was calculated considering the value for the well of 0 μM/ml of the test compound as 100%.
(In general: Formazan colour is commonly taken as a measure of viable cells.)

In general, Kp refers to tissue or fluid exposure divided by exposure in the circulation. With `C=Cc1c(C)c2cc3nc(cc4[nH]c(cc5nc(cc1[nH]2)C(C)(O)C5=CC=NO)c(C)c4CCC(=O)NC(CC(=O)O)C(=O)O)C(CCC(=O)NC(CC(=O)O)C(=O)O)=C3C` (centres unmarked) [Compound (II), reference compound], the Kp at 3 h in data set [1] (3 hr) was determined as 0.3. Further, in data set [1] (6 hr), the Kp at 6 h was 1.12. Moreover, in data set [1] (12 hr), the Kp at 12 h turned out to be 0.66. Further, in the data set on colon cancer Colon 26 (3 hr), the Cancer/Brain ratio came to 10.10, the Cancer/Kidney ratio is on record as 0.67, the Cancer/Liver ratio amounted to 0.62 and the Cancer/Lung ratio came to 2.35. Besides, the Cancer/Muscle ratio in the data set with colon cancer Colon 26 (3 hr) turned out to be 1.23. Besides, in the data set on colon cancer Colon 26 (6 hr), the Cancer/Brain ratio was 16.0, the Cancer/Kidney ratio worked out at 0.59, the Cancer/Liver ratio was determined as 1.01 and the Cancer/Lung ratio was 4.59. Further, in the data set with colon cancer Colon 26 (6 hr), the Cancer/Muscle ratio is 1.26. In the data set with colon cancer Colon 26 (12 hr), the Cancer/Brain ratio was found to be 15.0, the Cancer/Kidney ratio was 0.95, the Cancer/Liver ratio is 1.11 and the Cancer/Lung ratio is given as 2.68. Besides, the Cancer/Muscle ratio with colon cancer Colon 26 (12 hr) turned out to be 2.95. For the same molecule, the viability at 6.25 µM in the data set on HeLa cells (6.25 μM) turned out to be 81%. In the data set on HeLa cells (12.5 μM), the viability at 12.5 µM was 54%. The viability at 25 µM in the data set on HeLa cells (25 μM) amounted to 48%. In addition, the viability at 50 µM with HeLa cells (50 μM) was determined as 35%. Further, in the data set with HeLa cells (100 μM), the viability at 100 µM worked out at 19%.
